Tests used:
velvetleaf = test: Test B preemergence/postemergence greenhouse plant response rating 0 to 10; assay type: in vivo, Abutilon theophrasti; conditions: for Plant response rating, Velvetleaf: 0 to 10 scale
Summary of the method: (§1)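 Test chemicals, dissolved in a non-phytotoxic solvent, were applied to soil at planting and, at the same time, over foliage of seedlings at the one to four leaf stage.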

chickweed = test: Test C preemergence/postemergence greenhouse plant response rating 0 to 100; assay type: in vivo, Stellaria media; conditions: for Plant response rating, Chickweed: 125 g/ha, 0 to 100 scale
Summary of the method: (§2)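 Compounds in non-phytotoxic solvent went onto sandy loam before emergence (seeded one day earlier) or onto plants at the one-to-four leaf stage. Duck salad was treated via flood water (~2.5 cm, maintained) over silt loam.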

bedstraw = test: Test B preemergence/postemergence greenhouse plant response rating 0 to 10; assay type: in vivo, Galium aparine; conditions: for Plant response rating, Bedstraw: 0 to 10 scale
Summary of the method: as §1

morningglory [1] = test: as above; assay type: in vivo, Ipomoea hederacea; conditions: for Plant response rating, Morningglory: 0 to 10 scale
Summary of the method: as §1

giant foxtail = test: as above; assay type: in vivo, Setaria faberii; conditions: for Plant response rating, Giant foxtail: 0 to 10 scale
Summary of the method: as §1

blackgrass = test: Test C preemergence/postemergence greenhouse plant response rating 0 to 100; assay type: in vivo, Alopecurus myosuroides; conditions: for Plant response rating, Blackgrass: 125 g/ha, 0 to 100 scale
Summary of the method: as §2

cocklebur = test: Test B preemergence/postemergence greenhouse plant response rating 0 to 10; assay type: in vivo, Xanthium pensylvanicum; conditions: for Plant response rating, Cocklebur: 0 to 10 scale
Summary of the method: as §1

barley = test: as above; assay type: in vivo, Hordeum vulgare; conditions: for Plant response rating, Barley: 0 to 10 scale
Summary of the method: as §1

morningglory [2] = test: Test C preemergence/postemergence greenhouse plant response rating 0 to 100; assay type: in vivo, Ipomoea hederacea; conditions: for Plant response rating, Morningglory: 125 g/ha, 0 to 100 scale
Summary of the method: as §2

cheatgrass = test: Test B preemergence/postemergence greenhouse plant response rating 0 to 10; assay type: in vivo, Bromus secalinus; conditions: for Plant response rating, Cheatgrass: 0 to 10 scale
Summary of the method: as §1

COCOc1cc(-c2nn3c(c2Cl)CCCC3)c(F)cc1Cl [Compound 58]
65: Plant response rating (0 to 100), Blackgrass (blackgrass; Rate 31 g/ha, POSTEMERGENCE)
9: Plant response rating, Velvetleaf (velvetleaf; POSTEMERGENCE, Rate 50 g/ha) | Plant response rating (0 to 10 scale), Bedstraw (bedstraw; PREEMERGENCE, Rate 200 g/ha) | Plant response rating, Bedstraw (bedstraw; Rate 200 g/ha, POSTEMERGENCE) | Plant response rating, Morningglory (morningglory [1]; POSTEMERGENCE, Rate 50 g/ha) | Plant response rating, Giant foxtail (giant foxtail; PREEMERGENCE, Rate 50 g/ha) | Plant response rating (0 to 10 scale), Cocklebur (cocklebur; PREEMERGENCE, Rate 200 g/ha)
70: Plant response rating, Chickweed (chickweed; PREEMERGENCE) | Plant response rating (0 to 100), Chickweed (chickweed; Rate 8 g/ha, POSTEMERGENCE) | Plant response rating, Blackgrass (blackgrass; PREEMERGENCE) | Plant response rating (0 to 100), Morningglory (morningglory [2]; Rate 8 g/ha, POSTEMERGENCE)
20: Plant response rating (0 to 100), Chickweed (chickweed; POSTEMERGENCE, Rate 2 g/ha) | Plant response rating (0 to 100), Blackgrass (blackgrass; POSTEMERGENCE, Rate 2 g/ha) | Plant response rating (0 to 100), Blackgrass (blackgrass; Rate 8 g/ha, PREEMERGENCE)
7: Plant response rating, Cheatgrass (cheatgrass; POSTEMERGENCE, Rate 50 g/ha)
90: Plant response rating (0 to 100), Morningglory (morningglory [2]; Rate 31 g/ha, POSTEMERGENCE)
85: Plant response rating, Blackgrass (blackgrass; POSTEMERGENCE)
60: Plant response rating (0 to 100), Blackgrass (blackgrass; Rate 31 g/ha, PREEMERGENCE)
6: Plant response rating, Bedstraw (bedstraw; PREEMERGENCE, Rate 50 g/ha) | Plant response rating, Giant foxtail (giant foxtail; POSTEMERGENCE, Rate 50 g/ha) | Plant response rating, Giant foxtail (giant foxtail; Rate 200 g/ha, POSTEMERGENCE) | Plant response rating, Cocklebur (cocklebur; POSTEMERGENCE, Rate 50 g/ha) | Plant response rating, Barley (barley; POSTEMERGENCE, Rate 50 g/ha)
30: Plant response rating, Morningglory (morningglory [2]; PREEMERGENCE)
50: Plant response rating (0 to 100), Blackgrass (blackgrass; Rate 8 g/ha, POSTEMERGENCE) | Plant response rating (0 to 100), Morningglory (morningglory [2]; POSTEMERGENCE, Rate 2 g/ha)
1: Plant response rating, Barley (barley; PREEMERGENCE, Rate 50 g/ha)
0: Plant response rating (0 to 100), Blackgrass (blackgrass; PREEMERGENCE, Rate 2 g/ha) | Plant response rating, Cocklebur (cocklebur; PREEMERGENCE, Rate 50 g/ha) | Plant response rating (0 to 100), Morningglory (morningglory [2]; PREEMERGENCE, Rate 2 g/ha) | Plant response rating (0 to 100), Morningglory (morningglory [2]; Rate 8 g/ha, PREEMERGENCE) | Plant response rating (0 to 100), Morningglory (morningglory [2]; Rate 31 g/ha, PREEMERGENCE)
4: Plant response rating, Morningglory (morningglory [1]; PREEMERGENCE, Rate 50 g/ha) | Plant response rating (0 to 10 scale), Morningglory (morningglory [1]; PREEMERGENCE, Rate 200 g/ha) | Plant response rating (0 to 10 scale), Barley (barley; PREEMERGENCE, Rate 200 g/ha) | Plant response rating, Cheatgrass (cheatgrass; PREEMERGENCE, Rate 50 g/ha)
8: Plant response rating, Barley (barley; Rate 200 g/ha, POSTEMERGENCE) | Plant response rating (0 to 10 scale), Cheatgrass (cheatgrass; PREEMERGENCE, Rate 200 g/ha)
100: Plant response rating, Chickweed (chickweed; POSTEMERGENCE) | Plant response rating (0 to 100), Chickweed (chickweed; Rate 31 g/ha, POSTEMERGENCE) | Plant response rating, Morningglory (morningglory [2]; POSTEMERGENCE)
10: Plant response rating, Velvetleaf (velvetleaf; PREEMERGENCE, Rate 50 g/ha) | Plant response rating (0 to 10 scale), Velvetleaf (velvetleaf; PREEMERGENCE, Rate 200 g/ha) | Plant response rating, Velvetleaf (velvetleaf; Rate 200 g/ha, POSTEMERGENCE) | Plant response rating (0 to 100), Chickweed (chickweed; PREEMERGENCE, Rate 2 g/ha) | Plant response rating (0 to 100), Chickweed (chickweed; Rate 31 g/ha, PREEMERGENCE) | Plant response rating, Bedstraw (bedstraw; POSTEMERGENCE, Rate 50 g/ha) | Plant response rating, Morningglory (morningglory [1]; Rate 200 g/ha, POSTEMERGENCE) | Plant response rating (0 to 10 scale), Giant foxtail (giant foxtail; PREEMERGENCE, Rate 200 g/ha) | Plant response rating, Cocklebur (cocklebur; Rate 200 g/ha, POSTEMERGENCE) | Plant response rating, Cheatgrass (cheatgrass; Rate 200 g/ha, POSTEMERGENCE)
